For orientation: IC50 means the concentration that gives 50% inhibition. As usually defined, the remaining activity is what remains of the control signal, in per cent. The term DC50 denotes the concentration at which degradation of the target reaches its halfway point.

This note sets out measurements from patent publication US20240376094A2, “SELECTIVE BCL-XL PROTAC COMPOUNDS AND METHODS OF USE” (Les Laboratoires Servier, priority 2021, published 2024).

A value given as a limit tells only on which side of the number the result lay.

Holding throughout (assay type): cell-based
The subject of one test is NCI-H1650. As to the kind of experiment: CellTiter-Glo 3D proliferation assay, NCI-H1650 spheroids. Further details: key to NCI-H1650 Span (Amax): —: constructs were tested and inactive. The following applies: 5 days; for IC50 / Emax: Homo sapiens, NCI-H1650, 120 h; for Emax: read-out: NCI-H1650 Span (Amax). The method, then:
(§1) The BCL-xL degrader compounds were tested against two endogenous cancer cell lines: • COR-L105: ECACC No. 92031918 cultured in RPMI-1640+10% FBS • NCI-H1650: (ATCC No. CRL-5883 cultured in RPMI-1640+10% FBS
(§2) The ability of the BCL-xL degrader low molecular weight compounds to inhibit cell proliferation and survival was assessed using the Promega CellTiter-Glo® proliferation assay.
(§3) Cell lines were cultured in media that is optimal for their growth at 5% CO2, 37° C. in a tissue culture incubator. Prior to seeding for the proliferation assay, the cells were split at least 2 days before the assay to ensure optimal growth density. On the day of seeding, adherent cells were lifted off tissue culture flasks using 0.25% trypsin. Cell viability and cell density were determined using a cell counter (Vi-Cell XR Cell Viability Analyzer, Beckman Coulter). Cells with higher than 85% viability were seeded for the assay.
(§4) The COR-105 cell line was seeded in white, clear bottom 384-well TC treated plates (Corning cat. #3765). Cells were seeded at a density of 1,000 cells per well in 45 μL of standard growth media. Plates were incubated at 5% CO2, 37° C. overnight in a tissue culture incubator. The NCI-H1650 cell line was seeded in black, clear round bottom 384-well ultra-low attachment spheroid microplates (Corning cat. #3830). Cells were seeded at a density of 3,000 cells per well in 45 uL of standard growth media. Plates were spun in a centrifuge for 5 minutes and 1,000 RPM. Plates were incubated at 5% CO2, 37° C. for 72 hours in a tissue culture incubator.
(§5) On the day of dosing, BCL-xL degrader low molecular weight compounds were prepared at 1 OX in standard growth media. The prepared drug treatments were then added to the cells resulting in final concentrations of 0.508 nM-10 μM and a final volume of 50 μL per well. Each drug concentration was tested in quadruplets. Plates were incubated at 5% CO2, 37° C. for 5 days in a tissue culture incubator.
(§6) For COR-L105 plates, cell viability was assessed through the addition of 25 μL of CellTiter Glo® (Promega, cat #G7573), a reagent which lyses cells and measures total adenosine triphosphate (ATP) content. Plates were incubated at room temperature for 10 minutes to stabilize luminescent signals prior to reading with a luminescence reader (EnVision Multilabel Plate Reader, PerkinElmer). For NCI-H1650 plates, cell viability was assessed through the addition of 40 μL of CellTiter Glo® 3D Cell Viability Assay substrate (Promega, cat #G9681), a reagent which lyses cells and measures total adenosine triphosphate (ATP) content. Wells were mixed thoroughly and plates were incubated at room temperature for 30 minutes to stabilize luminescent signals prior to reading using a luminescence reader (EnVision Multilabel Plate Reader, PerkinElmer).
(§7) To evaluate the effect of the drug treatments, luminescent counts from wells containing untreated cells (100% viability) were used to normalize treated samples. A variable slope model was applied to fit a nonlinear regression curve to the data in GraphPad PRISM version 7.02 software. IC50 and Amax values were extrapolated from the resultant curves. The concentrations of treatment required to inhibit 50% of cell growth or survival (IC50) were calculated with representative IC50 values of the cell lines tested summarized in Table 11.
In general terms: Cellular ATP, detected with luciferase, serves as a proxy for viable cell number.

Another test addresses T1, Bcl-xL (Homo sapiens, UniProt Q07817).
T1 construct: Measured levels of Bcl-xL protein of HCT116 cells treated with the tested compounds; host or cells: HCT116
As to the kind of experiment: HCT116 Bcl-xL degradation, capillary-based immunoassay (WES). The following applies: for remaining activity at 0.01 µM / remaining activity at 0.1 µM: HCT-116, 24 h, % of untreated cells; for remaining activity at 0.01 µM: HCT116, 10 nM; for remaining activity at 0.1 µM: HCT116, 100 nM; for DC50: HCT116, 24 h, 9-point serial dilution. The essentials: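 Bcl-xL protein level by capillary WES immunoassay in HCT116 lysates, as % of untreated after cofilin normalization. Compound exposure was 24 h at 10 and 100 nM and/or a 9-point series, in quadruplicate. Four-parameter fitting gave the DC50.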

The next test relates to COR-L105. As to the kind of experiment: CellTiter-Glo proliferation assay, COR-L105. The following applies: Homo sapiens, COR-L105, 120 h, COR-L105, 5 days; for Emax: read-out: COR-L105 Span (max). How it is done:
as §1, §2, §3, §4, §5, §6, §7

The test system of test [1] is MOLT-4 cells. As to the kind of experiment: MOLT-4 cell viability, MTT assay. The following applies: Homo sapiens, MOLT-4, 48 h. An outline of the steps: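 MOLT-4 cells in RPMI 1640 with 10% FBS were exposed to compounds for 48 h at 9 concentrations (3.16-fold dilutions, triplicates). After 4 h with MTT and overnight SDS/HCl solubilisation, absorbance was read at 540 nm. IC50 came from four-parameter fits versus control, as the mean of ≥2 independent experiments.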

Test [2] concerns MOLT-4 cells. As to the kind of experiment: MOLT-4 cell viability, CTG assay. Conditions: MOLT-4, 48 h. An outline of the steps: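 Viability read as total ATP luminescence (CTG) after 48 h compound treatment, 11 points at 5-fold spacing in triplicate, cells in RPMI 1640/10% FBS. IC50 is the concentration halving signal relative to control, four-parameter fit, averaged over at least 2 experiments.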

T1 sequence (Q07817 whole entry): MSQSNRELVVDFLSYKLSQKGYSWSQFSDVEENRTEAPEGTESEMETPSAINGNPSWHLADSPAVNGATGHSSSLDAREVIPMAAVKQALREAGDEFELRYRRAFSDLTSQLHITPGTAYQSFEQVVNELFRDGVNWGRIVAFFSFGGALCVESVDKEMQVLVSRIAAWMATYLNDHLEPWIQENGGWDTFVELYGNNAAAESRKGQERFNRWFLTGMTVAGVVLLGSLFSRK

Regarding `Cc1cc(N(C)c2nc(C(=O)O)c(CCCOc3ccc(C#CCN(C)CC(=O)NCCOCCNC(=O)COc4cccc5c4C(=O)N(C4CCC(=O)NC4=O)C5=O)cc3F)s2)nnc1Nc1nc2ccccc2s1` (centres unmarked) [Example 32, 2-[[6-(1,3-benzothiazol-2-ylamino)-5-methyl-pyridazin-3-yl]-methyl-amino]-5-[3-[4-[3-[[2-[2-[2-[[2-[2-(2,6-dioxo-3-piperidyl)-1,3-dioxo-isoindolin-4-yl]oxyacetyl]amino]ethoxy]ethylamino]-2-oxo-ethyl]-methyl-amino]prop-1-ynyl]-2-fluoro-phenoxy]propyl]thiazole-4-carboxylic acid], in the test on NCI-H1650, the “NCI-H1650 Span (Amax)” value is “—” and the IC50 was greater than 1000 nM. Also, on Bcl-xL, the remaining activity at 0.01 µM came to 83% and the remaining activity at 0.1 µM stood at 53%. Also, in the test with COR-L105, the IC50 is greater than 10000 nM. This molecule also gave an IC50 in the test with MOLT-4 cells [1] of 64.2 nM.

On to `Cc1c(Nc2nc3ccccc3s2)nnc2c1CCCN2c1nc(C(=O)O)c(CCCOc2ccc(C#CCN3CCN(C(=O)CCCC(=O)NCCOCCNC(=O)COc4cccc5c4C(=O)N(C4CCC(=O)NC4=O)C5=O)CC3)cc2F)s1` (centres unmarked) [Example 26, 2-[3-(1,3-benzothiazol-2-ylamino)-4-methyl-6,7-dihydro-5H-pyrido[2,3-c]pyridazin-8-yl]-5-[3-[4-[3-[4-[5-[2-[2-[[2-[2-(2,6-dioxo-3-piperidyl)-1,3-dioxo-isoindolin-4-yl]oxyacetyl]amino]ethoxy]ethylamino]-5-oxo-pentanoyl]piperazin-1-yl]prop-1-ynyl]-2-fluoro-phenoxy]propyl]thiazole-4-carboxylic acid], for which the IC50 in the test on NCI-H1650 stood at 56.9 nM; in the test with MOLT-4 cells [2] it was 26 nM; in the test with COR-L105 it was 212 nM; with MOLT-4 cells [1] it was 20.9 nM. Also, the Emax with NCI-H1650 worked out at 70.1%; in the test on COR-L105 it was 88%. At Bcl-xL, this molecule yielded a DC50 greater than 316 nM. On Bcl-xL, this molecule returned a remaining activity at 0.01 µM of 63%. Besides, at Bcl-xL, the remaining activity at 0.1 µM is 51%.

On to `Cc1ncsc1-c1ccc(CNC(=O)C2C[C@@H](O)CN2C(=O)C(NC(=O)CCCCCC(=O)N2CCN(CCOC34CC5(C)CC(C)(CC(Cn6ncc(-c7ccc(N8CCCc9c8nnc(Nc8nc%10ccccc%10s8)c9C)nc7C(=O)O)c6C)(C5)C3)C4)CC2)C(C)(C)C)cc1` (stereo in doubt) [Example 22, 6-[3-(1,3-benzothiazol-2-ylamino)-4-methyl-6,7-dihydro-5H-pyrido[2,3-c]pyridazin-8-yl]-3-[1-[[3-[2-[4-[7-[[(1S)-1-[(2S,4R)-4-hydroxy-2-[[4-(4-methylthiazol-5-yl)phenyl]methylcarbamoyl]pyrrolidine-1-carbonyl]-2,2-dimethyl-propyl]amino]-7-oxo-heptanoyl]piperazin-1-yl]ethoxy]-5,7-dimethyl-1-adamantyl]methyl]-5-methyl-pyrazol-4-yl]pyridine-2-carboxylic acid], for which, in the test with NCI-H1650, the IC50 was found to be 72.8 nM and the Emax was 92.6%. On Bcl-xL, this molecule had a DC50 greater than 316 nM, a remaining activity at 0.01 µM of 68% and a remaining activity at 0.1 µM of 54%. Also, in the test on COR-L105, the IC50 amounted to 275 nM and the Emax worked out at 104%. Further, inhibition in the test with MOLT-4 cells [1] was half-maximal at 4.7 nM (IC50).

Take `Cc1c(Nc2nc3ccccc3s2)nnc2c1CCCN2c1nc(C(=O)O)c(CCCOc2ccc(C#CCN3CCN(C(=O)CCCCCCC(=O)NCCOCCNC(=O)COc4cccc5c4C(=O)N(C4CCC(=O)NC4=O)C5=O)CC3)cc2F)s1` (centres unmarked) [Example 25, 2-[3-(1,3-benzothiazol-2-ylamino)-4-methyl-6,7-dihydro-5H-pyrido[2,3-c]pyridazin-8-yl]-5-[3-[4-[3-[4-[8-[2-[2-[[2-[2-(2,6-dioxo-3-piperidyl)-1,3-dioxo-isoindolin-4-yl]oxyacetyl]amino]ethoxy]ethylamino]-8-oxo-octanoyl]piperazin-1-yl]prop-1-ynyl]-2-fluoro-phenoxy]propyl]thiazole-4-carboxylic acid]: in the test with NCI-H1650, the IC50 worked out at 38.8 nM and the Emax amounted to 74%. At Bcl-xL, this molecule displayed a 50% degradation concentration (DC50) greater than 316 nM, a remaining activity at 0.01 µM of 59% and a remaining activity at 0.1 µM of 55%. Moreover, in the test on COR-L105, the IC50 amounted to 174 nM and the Emax is 87.4%. In addition, the IC50 in the test with MOLT-4 cells [1] came to 1.09 nM.

As to `Cc1ncsc1-c1ccc(CNC(=O)[C@@H]2CC(O)CN2C(=O)C(NC(=O)CCCCC(=O)N2CCN(CCOC34CC5(C)CC(C)(CC(Cn6ncc(-c7ccc(N8CCCc9c8nnc(Nc8nc%10ccccc%10s8)c9C)nc7C(=O)O)c6C)(C5)C3)C4)CC2)C(C)(C)C)cc1` (stereo in doubt) [Example 23, 6-[3-(1,3-benzothiazol-2-ylamino)-4-methyl-6,7-dihydro-5H-pyrido[2,3-c]pyridazin-8-yl]-3-[1-[[3-[2-[4-[6-[[(1S)-1-[(2S,4R)-4-hydroxy-2-[[4-(4-methylthiazol-5-yl)phenyl]methylcarbamoyl]pyrrolidine-1-carbonyl]-2,2-dimethyl-propyl]amino]-6-oxo-hexanoyl]piperazin-1-yl]ethoxy]-5,7-dimethyl-1-adamantyl]methyl]-5-methyl-pyrazol-4-yl]pyridine-2-carboxylic acid], in the test on NCI-H1650, the IC50 was 35.7 nM and the Emax was 71.4%. At Bcl-xL, this molecule had a remaining activity at 0.01 µM of 82% and a remaining activity at 0.1 µM of 67%. Moreover, in the test with COR-L105, inhibition was half-maximal at 183 nM (IC50) and the Emax was found to be 100%. Further, in the test on MOLT-4 cells [1], the IC50 was determined as 10.5 nM.
